Results published in PubChem BioAssay AID540323 (Johns Hopkins Ion Channel Center, 2011).
Calls of active or inactive are those of the source.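 Rule for the calls: active = peak hERG channel inhibition above 30% at some tested dose, together with a fitted dose response curve; inactive = no hERG inhibition at any dose, or no curve.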

target: Voltage-gated inwardly rectifying potassium channel KCNH2 (Homo sapiens) (UniProt Q12809); test: KCNH2 potassium channel blockade – FluxOR Tl flux, hERG cells, CRC 2, selectivity assay for KCNK9 inhibitor project, SAR follow-up (AID 540323); settings: hERG-expressing cells, FluxOR thallium flux fluorescence; at 30 µM (top of the series); test wells contain dofetilide at its IC70
Sequence (Q12809 whole entry, looked up): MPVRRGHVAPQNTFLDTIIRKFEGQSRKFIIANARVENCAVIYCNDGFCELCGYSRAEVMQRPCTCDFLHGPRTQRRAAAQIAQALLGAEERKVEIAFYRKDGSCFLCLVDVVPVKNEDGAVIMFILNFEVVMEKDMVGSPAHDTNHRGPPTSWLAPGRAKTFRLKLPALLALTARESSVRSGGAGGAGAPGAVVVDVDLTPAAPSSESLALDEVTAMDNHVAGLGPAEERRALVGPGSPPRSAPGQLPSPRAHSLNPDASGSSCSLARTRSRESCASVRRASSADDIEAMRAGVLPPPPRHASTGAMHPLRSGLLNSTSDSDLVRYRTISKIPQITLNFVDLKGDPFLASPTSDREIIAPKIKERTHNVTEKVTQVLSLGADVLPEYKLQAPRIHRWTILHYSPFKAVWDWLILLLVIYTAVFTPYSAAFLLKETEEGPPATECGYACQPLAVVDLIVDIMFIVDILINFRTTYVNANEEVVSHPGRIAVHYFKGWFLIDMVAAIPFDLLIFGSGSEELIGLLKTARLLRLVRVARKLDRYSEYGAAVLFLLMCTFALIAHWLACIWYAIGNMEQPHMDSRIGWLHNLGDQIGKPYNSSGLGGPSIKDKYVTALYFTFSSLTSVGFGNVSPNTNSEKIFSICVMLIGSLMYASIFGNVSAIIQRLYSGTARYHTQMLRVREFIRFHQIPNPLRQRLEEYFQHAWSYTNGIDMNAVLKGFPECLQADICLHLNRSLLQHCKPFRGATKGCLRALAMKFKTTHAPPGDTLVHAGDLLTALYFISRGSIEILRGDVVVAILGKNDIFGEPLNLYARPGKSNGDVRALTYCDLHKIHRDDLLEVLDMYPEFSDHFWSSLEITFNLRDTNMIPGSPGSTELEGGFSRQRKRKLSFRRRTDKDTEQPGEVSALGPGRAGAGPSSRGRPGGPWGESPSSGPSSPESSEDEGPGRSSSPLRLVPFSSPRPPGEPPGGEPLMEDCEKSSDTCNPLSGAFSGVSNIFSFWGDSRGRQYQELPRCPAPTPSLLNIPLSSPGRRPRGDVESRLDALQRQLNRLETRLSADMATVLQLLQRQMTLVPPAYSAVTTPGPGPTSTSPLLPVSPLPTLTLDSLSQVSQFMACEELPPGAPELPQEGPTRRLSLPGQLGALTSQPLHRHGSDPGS

Row | Structure (SMILES) | fluorescence ratio, lower = inhibition
1 | O=C(Nc1cccc(NC(=O)c2cccc(Cl)c2)c1)c1ccccc1 | inactive
2 | COc1cccc(C(=O)Nc2cccc(NC(=O)c3cccc(C)c3)c2)c1 | inactive
3 | CCOc1ccccc1NC(=O)c1cccc(NC(=O)c2ccccc2Cl)c1 | inactive
4 | Cc1cccc(C(=O)Nc2cccc(NC(=O)c3ccncc3)c2)c1 | inactive
5 | CCOc1ccccc1NC(=O)c1cccc(NC(=O)c2cccc(C)c2)c1 | inactive
6 | O=C(Nc1cccc(NC(=O)C2CCCCC2)c1)c1ccccc1 | inactive
7 | Cc1ccccc1-c1n[nH]c(=S)n1C(C)C1CC2CCC1C2 (configuration not stated) | inactive
8 | COc1ccccc1NC(=O)c1cccc(NC(=O)CC2CCCC2)c1 | inactive
9 | CCOc1ccccc1NC(=O)c1cccc(NC(=O)C2CC2)c1 | inactive
10 | COc1ccccc1C(=O)Nc1cccc(NC(=O)c2ccccc2OC)c1 | inactive
11 | COc1cccc(OC)c1C(=O)Nc1cccc(NC(=O)c2cccc(C)c2)c1 | inactive
12 | COc1ccccc1NC(=O)c1cccc(NC(=O)c2ccccc2C(F)(F)F)c1 | inactive
13 | CCOc1ccccc1NC(=O)c1cccc(NC(=O)c2ccccc2OC(F)(F)F)c1 | inactive
14 | CCOc1ccccc1NC(=O)c1cccc(NC(=O)c2ccc(C)cc2)c1 | inactive
15 | Cc1ccccc1C(=O)Nc1cccc(NC(=O)c2ccccc2)c1 | inactive
16 | CC(C1CC2CCC1C2)n1c(-c2cccc(Cl)c2)n[nH]c1=S (configuration not stated) | inactive
17 | CC(C1CC2CCC1C2)n1c(-c2ccc(Cl)cc2)n[nH]c1=S (configuration not stated) | inactive
18 | Cc1cccc(C(=O)Nc2cccc(NC(=O)c3ccco3)c2)c1 | inactive
19 | CC(C1CC2CCC1C2)n1c(-c2ccccc2Cl)n[nH]c1=S (configuration not stated) | inactive
20 | CCOc1ccccc1NC(=O)c1cccc(NC(=O)C2CCOC2)c1 (configuration not stated) | inactive
21 | CC(c1ccccc1)n1c(-c2ccco2)n[nH]c1=S (configuration not stated) | inactive
22 | CCOc1ccccc1NC(=O)c1cccc(NC(=O)c2ccccc2OC)c1 | inactive
23 | O=C(Nc1cccc(NC(=O)c2ccc(Cl)cc2)c1)c1ccccc1 | inactive
24 | COc1ccc(C(=O)Nc2cccc(NC(=O)c3ccccc3)c2)cc1 | inactive

Row | Structure (SMILES) | fluorescence ratio, lower = inhibition
25 | COc1ccccc1NC(=O)c1cccc(NC(=O)c2ccccc2)c1 | inactive
26 | CCOc1ccccc1C(=O)Nc1cccc(NC(=O)c2ccccc2OC)c1 | inactive
27 | CCOc1ccc(NC(=O)c2cccc(NC(=O)C3CCCC3)c2)cc1 | inactive
28 | CCOc1ccccc1NC(=O)c1cccc(NC(=O)c2ccccc2)c1 | inactive
29 | O=C(Nc1cccc(NC(=O)c2ccoc2)c1)c1ccccc1 | inactive
30 | Cc1cccc(C(=O)Nc2ccccc2NC(=O)c2ccccc2)c1 | inactive
31 | O=C(Nc1cccc(NC(=O)c2cccs2)c1)c1ccccc1 | inactive
32 | CCOc1ccccc1NC(=O)c1cccc(NC(=O)c2ccc(OC)cc2)c1 | inactive
33 | Cc1cccc(C(=O)Nc2cccc(NC(=O)c3ccccc3OC(F)(F)F)c2)c1 | inactive
34 | O=C(Nc1ccccc1Cl)c1cccc(NC(=O)C2CCCC2)c1 | inactive
35 | CCOc1ccccc1NC(=O)c1cccc(NC(=O)CC2CCCC2)c1 | inactive
36 | CC(C1CC2CCC1C2)n1c(-c2ccco2)n[nH]c1=S (configuration not stated) | inactive
37 | Cc1cccc(C(=O)Nc2cccc(NC(=O)C3CCCCC3)c2)c1 | inactive
38 | Cc1cccc(C(=O)Nc2cccc(NC(=O)c3ccc(Cl)cc3)c2)c1 | inactive
39 | Cc1cccc(-c2n[nH]c(=S)n2C(C)C2CC3CCC2C3)c1 (configuration not stated) | inactive
40 | COc1ccc(-c2n[nH]c(=S)n2C(C)C2CC3CCC2C3)cc1 (configuration not stated) | inactive
41 | COc1ccccc1C(=O)Nc1cccc(NC(=O)c2ccccc2)c1 | inactive
42 | Cc1cccc(C(=O)Nc2cccc(NC(=O)c3ccccc3C(F)(F)F)c2)c1 | inactive
43 | O=C(Nc1cccc(NC(=O)c2ccco2)c1)c1ccccc1 | inactive
44 | COc1cccc(-c2n[nH]c(=S)n2C(C)C2CC3CCC2C3)c1 (configuration not stated) | inactive
45 | CCOc1ccccc1NC(=O)c1cccc(NC(=O)c2ccccc2C)c1 | inactive
46 | O=C(Nc1cccc(NC(=O)c2ccccc2C(F)(F)F)c1)c1ccccc1 | inactive
47 | COc1ccc(C(=O)Nc2cccc(NC(=O)c3cccc(C)c3)c2)cc1 | inactive
